The assay relates to SKOV-3 cells. The experiment in a line: Annexin V / propidium iodide apoptosis assay by flow cytometry. It counts as cell-based, human. Particulars: for Apoptotic Cells (%) Mean, Day2 / Apoptotic Cells (%) Mean, Day3 / Apoptotic Cells (%) Mean, Day4: 1 μM, Q1 and Q2, mean of three experiments, * p < 0.01 vs untreated; for Apoptotic Cells (%) Mean, Day2 / percentage of apoptotic cells (Q1, Q2 quadrants), day 2: 2 days; for Apoptotic Cells (%) Mean, Day3 / percentage of apoptotic cells (Q1, Q2 quadrants), day 3: 3 days; for Apoptotic Cells (%) Mean, Day4 / percentage of apoptotic cells (Q1, Q2 quadrants), day 4: 4 days; for percentage of apoptotic cells (Q1, Q2 quadrants), day 2 / percentage of apoptotic cells (Q1, Q2 quadrants), day 3 / percentage of apoptotic cells (Q1, Q2 quadrants), day 4: 1 μΜ, 37 °C, representative experiment (Figure 5). The text has this: We next evaluate the abilities of Con-3 and Con-7 at concentrations of 1 μΜ to induce cell death by determining the percentages of live, apoptotic and necrotic cells after treatment of SKOV-3 cells with the GnRH conjugates. As shown in Figure 5 and Figures S1–S3 on day 2, the majority of SKOV-3 cells were viable (Q4 quadrant), treated either with Con-3, Con-7 or mitoxantrone, whereas the percentage of apoptotic cells (late or early apoptotic) (Q1, Q2 quadrants) was only 10.1%, 10.87% and 13.1% after treatment with Con-3, Con-7 or mitoxantrone, respectively. […] Cell viability further decreased on day 4 with a concomitant increase in apoptosis. Specifically, the percentage of apoptotic cells was 53.5%, 59.6% and 54.3% after treatment with Con-3, Con-7 or mitoxantrone (Figure 5 and Figures S7–S9). In all phases, the percentage of the necrotic and late apoptotic cells (Q3 quadrant) was very small.
Figure 5 Determination of viability, apoptosis, or necrosis of SKOV-3 cells after their treatment with 1 μM Con-3, Con-7, or mitoxantrone for 2, 3, and 4 days at 37 °C. At the end of the incubation the cells were further incubated in binding buffer supplied by Biotium, (CF488A Apoptosis Detection kit) and analyzed on a flow cytometer (excitation 488 nm), in the FITC channel (filter 530 nm) for detection of the Annexin V-positive cellsand in the propidium iodide, or PI, channel (filter 616 nm) for detection of the PI-positive cells. The figures are from a representative experiment performed three times with similar results. A higher resolution of the images in Figure 5 is provided in the Supplementary Material (Figures S1–S9). TEXT PRINTED IN THE PICTURE: Con-3: Q3: 4,19 (Day 2); Q2: 7,12 (Day 2); Q4: 85,7 (Day 2); Q1: 2,98 (Day 2); Q3: 5,31 (Day3); Q2: 19,5 (Day3); Q4: 58,0 (Day3); Q1: 17,1 (Day3); Q3: 3,54 (Day4); Q2: 17,1 (Day4); Q4: 43,0 (Day4); Q1: 36,4 (Day4) | Con-7: Q3: 6,31 (Day 2); Q2: 7,74 (Day 2); Q4: 82,8 (Day 2); Q1: 3,13 (Day 2); Q3: 8,11 (Day3); Q2: 19,8 (Day3); Q4: 56,8 (Day3); Q1: 15,3 (Day3); Q3: 3,48 (Day4); Q2: 19,7 (Day4); Q4: 36,9 (Day4); Q1: 39,9 (Day4) | Mitoxantrone: Q3: 6,49 (Day 2); Q2: 9,40 (Day 2); Q4: 80,4 (Day 2); Q1: 3,67 (Day 2); Q3: 7,13 (Day3); Q2: 18,9 (Day3); Q4: 61,0 (Day3); Q1: 13,1 (Day3); Q3: 2,72 (Day4); Q2: 17,3 (Day4); Q4: 43,0 (Decimal sign as read) (Day4); Q1: 37,0 (Day4) DOUBTS OF THE COPYIST ABOUT THIS PICTURE: All quadrant values: the print is very small, and the decimal sign may be a comma or a point in every value / Con-3, Day 2, Q4: 85,7 or 86,7 / Con-3, Day 2, Q1: 2,98 or 2,96 / Con-3, Day3, Q3: 5,31 or 6,31 / Con-3, Day3, Q2: 19,5 or 19,6 / Con-3, Day3, Q4: 58,0 or 56,0 / Con-3, Day4, Q3: 3,54 or 3,64 / Con-3, Day4, Q1: 36,4 or 38,4 / Con-7, Day 2, Q3: 6,31 or 8,31 / Con-7, Day 2, Q4: 82,8 or 82,6 / Con-7, Day 2, Q1: 3,13 or 3,15 / Con-7, Day3, Q3: 8,11 or 6,11 / Con-7, Day3, Q2: 19,8 or 19,6 / Con-7, Day3, Q4: 56,8 or 58,8 / Con-7, Day3, Q1: 15,3 or 15,8 / Con-7, Day4, Q3: 3,48 or 3,46 / Con-7, Day4, Q4: 36,9 or 38,9 / Con-7, Day4, Q1: 39,9 or 38,9 / Mitoxantrone, Day 2, Q3: 6,49 or 8,49 / Mitoxantrone, Day 2, Q2: 9,40 or 8,40 / Mitoxantrone, Day 2, Q4: 80,4 or 60,4 / Mitoxantrone, Day 2, Q1: 3,67 or 3,87 / Mitoxantrone, Day3, Q2: 18,9 or 16,9 / Mitoxantrone, Day3, Q4: 61,0 or 81,0 / Mitoxantrone, Day3, Q1: 13,1 or 15,1 […]
SKOV-3 cells were seeded into 12-well plates at a density of 50,000 cells/well and incubated overnight in DMEM/F12 (1:1) containing 3.15 g/L glucose and 10% BCS, at 37 °C and 5% CO2. At the end of the incubation, the culture medium was replaced with a fresh one containing 3.15 g/L glucose and 2% BCS, with or without GnRH analogs or mitoxantrone at a concentration of 1 μΜ, and the cells were further incubated at 37 °C and 5% CO2 for 2, 3 and 4 days. […]
Background: Flow cytometry measures light scatter and fluorescence of single cells or particles in a stream.

Turning to `CCNC(=O)[C@@H]1CCCN1C(=O)[C@H](CCCNC(=N)N)NC(=O)[C@H](CC(C)C)NC(=O)[C@@H](CCCCNC(=O)CCCCCNC(=O)CCSSCC(=O)OCCNCCNc1ccc(NCCNCCO)c2c1C(=O)c1c(O)ccc(O)c1C2=O)NC(=O)[C@H](Cc1ccc(O)cc1)NC(=O)[C@H](CO)NC(=O)[C@H](Cc1c[nH]c2ccccc12)NC(=O)[C@H](Cc1c[nH]cn1)NC(=O)[C@@H]1CCC(=O)N1` [Con-7], the “Apoptotic Cells (%) Mean, Day2” value is recorded as 13.81 * %; the “Apoptotic Cells (%) Mean, Day3” value is reported as 33.53 * %; the “Apoptotic Cells (%) Mean, Day4” value was 51.17 * %; the “percentage of apoptotic cells (Q1, Q2 quadrants), day 2” value (from here on “percentage of apoptotic cells … day 2”) is listed as 10.87%. Also, the “percentage of apoptotic cells (Q1, Q2 quadrants), day 3” value (from here on “percentage of apoptotic cells … day 3”) turned out to be 35.1% and the “percentage of apoptotic cells (Q1, Q2 quadrants), day 4” value (from here on “percentage of apoptotic cells … day 4”) worked out at 59.6%.

With `CCNC(=O)[C@@H]1CCCN1C(=O)[C@H](CCCNC(=N)N)NC(=O)[C@H](CC(C)C)NC(=O)[C@@H](CSSCCC(=O)OCCNCCNc1ccc(NCCNCCO)c2c1C(=O)c1c(O)ccc(O)c1C2=O)NC(=O)[C@H](Cc1ccc(O)cc1)NC(=O)[C@H](CO)NC(=O)[C@H](Cc1c[nH]c2ccccc12)NC(=O)[C@H](Cc1c[nH]cn1)NC(=O)[C@@H]1CCC(=O)N1` [Con-3], the “Apoptotic Cells (%) Mean, Day2” value is 13.68 * %; the “Apoptotic Cells (%) Mean, Day3” value was 35.00 * %; the “Apoptotic Cells (%) Mean, Day4” value was 49.50 * %; the “percentage of apoptotic cells … day 2” value was 10.1%. Moreover, the “percentage of apoptotic cells … day 3” value was 36.6% and the “percentage of apoptotic cells … day 4” value is reported as 53.5%.

Turning to `O=C1c2c(O)ccc(O)c2C(=O)c2c(NCCNCCO)ccc(NCCNCCO)c21` [mitoxantrone], the “Apoptotic Cells (%) Mean, Day2” value is 14.26 * %; the “Apoptotic Cells (%) Mean, Day3” value was 33.60 * %; the “Apoptotic Cells (%) Mean, Day4” value is reported as 50.10 * %; the “percentage of apoptotic cells … day 2” value was determined as 13.1%. In addition, the “percentage of apoptotic cells … day 3” value is listed as 32% and the “percentage of apoptotic cells … day 4” value amounted to 54.3%.

(Values after publication PMC11397358, “Cytotoxic Activity of Novel GnRH Analogs Conjugated with Mitoxantrone in Ovarian Cancer Cells” (Molecules, 2024).)
